The target in assay [1] is human GCGR (Homo sapiens, UniProt P47871). The experiment in a line: Peptide-receptor mediated cAMP accumulation (LANCE Ultra cAMP) in CHO-K1 cells transfected with human GCGR. To be noted: Table 3. The class given is cell-based.
In assay [2] the target is human GLP-1R (Homo sapiens, UniProt P43220). The experiment in a line: Peptide-receptor mediated cAMP accumulation (LANCE Ultra cAMP) in CHO-K1 cells transfected with human GLP-1R. It counts as cell-based. To be noted: hGLP1 pEC50 (cAMP mean (n = 3): 11 point curve starting at 1 nM, Table 3). (cAMP levels reflect the balance of adenylyl cyclase and phosphodiesterase activity.)
Chain of human GLP-1R (P43220 24-463): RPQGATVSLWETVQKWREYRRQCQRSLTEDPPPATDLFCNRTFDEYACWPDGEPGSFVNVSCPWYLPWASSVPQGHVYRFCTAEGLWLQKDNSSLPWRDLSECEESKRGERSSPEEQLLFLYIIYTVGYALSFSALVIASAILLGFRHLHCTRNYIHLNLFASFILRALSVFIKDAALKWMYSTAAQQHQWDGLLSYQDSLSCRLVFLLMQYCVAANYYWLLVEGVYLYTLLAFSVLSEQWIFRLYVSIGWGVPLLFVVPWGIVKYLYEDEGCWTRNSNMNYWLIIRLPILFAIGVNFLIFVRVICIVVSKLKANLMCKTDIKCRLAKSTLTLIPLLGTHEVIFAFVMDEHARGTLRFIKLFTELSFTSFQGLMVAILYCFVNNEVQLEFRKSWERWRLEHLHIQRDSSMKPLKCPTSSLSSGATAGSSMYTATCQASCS

Structures are written as SMILES. Where a SMILES comes first, the peptide text is derived from it. [ ]: non-standard residue; d: D form. Aib = CC(C)(N)C(=O)O

One may read the EC50 as the concentration needed to bring the measured effect to its halfway point. The low end stands for higher potency in that assay, the high end for lower potency in that assay.

Chain of human GCGR (P47871 26-477): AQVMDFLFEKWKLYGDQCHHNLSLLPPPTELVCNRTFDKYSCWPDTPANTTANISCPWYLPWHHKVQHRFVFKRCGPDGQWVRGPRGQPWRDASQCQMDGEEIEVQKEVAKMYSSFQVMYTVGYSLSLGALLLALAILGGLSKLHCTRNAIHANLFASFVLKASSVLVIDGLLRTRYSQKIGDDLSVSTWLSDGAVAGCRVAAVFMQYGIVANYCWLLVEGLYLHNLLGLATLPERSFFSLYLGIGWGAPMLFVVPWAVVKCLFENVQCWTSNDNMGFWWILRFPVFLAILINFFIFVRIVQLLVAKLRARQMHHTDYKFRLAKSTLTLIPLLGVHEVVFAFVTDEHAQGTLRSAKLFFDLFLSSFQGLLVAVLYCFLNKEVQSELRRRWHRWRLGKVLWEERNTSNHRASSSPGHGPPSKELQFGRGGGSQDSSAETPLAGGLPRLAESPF

In the case of `CC(C)C[C@H](NC(=O)[C@H](Cc1c[nH]c2ccccc12)NC(=O)[C@H](CCCCN)NC(=O)[C@H](CO)NC(=O)[C@H](Cc1ccc(O)cc1)NC(=O)[C@H](CC(=O)O)NC(=O)[C@H](CO)NC(=O)[C@@H](NC(=O)[C@H](Cc1ccccc1)NC(=O)[C@@H](NC(=O)CNC(=O)[C@H](Cc1c[nH]cn1)NC(=O)[C@@H](NC(=O)[C@@H](N)Cc1ccc(O)cc1)[C@@H](C)O)[C@@H](C)O)[C@@H](C)O)C(=O)N[C@@H](CC(=O)O)C(=O)N[C@@H](CO)C(=O)N[C@@H](CCCCN)C(=O)N[C@@H](CCCNC(=N)N)C(=O)N[C@@H](C)C(=O)N[C@@H](CCC(N)=O)C(=O)N[C@@H](CCC(=O)O)C(=O)N[C@@H](Cc1ccccc1)C(=O)N[C@H](C(=O)N[C@@H](CCCCN)C(=O)N[C@@H](Cc1c[nH]c2ccccc12)C(=O)N[C@@H](CC(C)C)C(=O)N[C@@H](CCC(=O)O)C(=O)N[C@@H](CC(=O)O)C(=O)N[C@@H](CCC(=O)O)C(=O)N1CCC[C@H]1C(=O)N[C@@H](CO)C(=O)N[C@@H](CO)C(=O)NCC(=O)N[C@@H](C)C(=O)N1CCC[C@H]1C(=O)N1CCC[C@H]1C(=O)N1CCC[C@H]1C(=O)N[C@@H](CO)C(=O)O)C(C)C` [Compound A42] (H-YTHGTFTSDYSKWLDSKRAQEFVKWLEDEPSSGAPPPS-OH; N-terminus assumed), the EC50 in assay [1] is 398 pM; in assay [2] it was > 1 nM.

On to `CC(C)C[C@H](NC(=O)[C@H](Cc1ccc(O)cc1)NC(=O)[C@H](CCCCN)NC(=O)[C@H](CO)NC(=O)[C@H](Cc1ccc(O)cc1)NC(=O)[C@H](CC(=O)O)NC(=O)[C@H](CO)NC(=O)[C@@H](NC(=O)[C@H](Cc1ccccc1)NC(=O)[C@@H](NC(=O)CNC(=O)[C@H](Cc1c[nH]cn1)NC(=O)[C@H](CO)NC(=O)[C@@H](N)Cc1ccc(O)cc1)[C@@H](C)O)[C@@H](C)O)C(=O)N[C@@H](CC(=O)O)C(=O)NC(C)(C)C(=O)N[C@@H](CCCCN)C(=O)N[C@@H](CCCNC(=N)N)C(=O)N[C@@H](C)C(=O)N[C@@H](CCC(N)=O)C(=O)N[C@@H](CCC(=O)O)C(=O)N[C@@H](Cc1ccccc1)C(=O)N[C@H](C(=O)NC(C)(C)C(=O)N[C@@H](Cc1c[nH]c2ccccc12)C(=O)N[C@@H](CC(C)C)C(=O)N[C@@H](CCC(=O)O)C(=O)N[C@@H](CC(=O)O)C(=O)N[C@@H](CCC(=O)O)C(=O)N[C@@H](CCCCN)C(=O)N[C@@H](CCCNC(=N)N)C(=O)N[C@@H](CC(N)=O)C(=O)N[C@@H](CCCCN)C(=O)N1CCC[C@H]1C(=O)N1CCC[C@H]1C(=O)N1CCC[C@H]1C(=O)N[C@@H](C)C(=O)O)C(C)C` [Compound A45] (H-YSHGTFTSDYSKYLD[Aib]KRAQEFV[Aib]WLEDEKRNKPPPA-OH; N-terminus assumed), for which the EC50 in assay [1] was 2 pM; in assay [2], > 1 nM.

With `CC(C)C[C@H](NC(=O)[C@H](Cc1ccc(O)cc1)NC(=O)[C@H](CCCCN)NC(=O)[C@H](CO)NC(=O)[C@H](Cc1ccc(O)cc1)NC(=O)[C@H](CC(=O)O)NC(=O)[C@H](CO)NC(=O)[C@@H](NC(=O)[C@H](Cc1ccccc1)NC(=O)[C@@H](NC(=O)CNC(=O)[C@H](Cc1c[nH]cn1)NC(=O)[C@H](CO)NC(=O)[C@@H](N)Cc1ccc(O)cc1)[C@@H](C)O)[C@@H](C)O)C(=O)N[C@@H](CC(=O)O)C(=O)NC(C)(C)C(=O)N[C@@H](CCCCN)C(=O)N[C@@H](CCCNC(=N)N)C(=O)N[C@@H](C)C(=O)N[C@@H](CCC(N)=O)C(=O)N[C@@H](CCC(=O)O)C(=O)N[C@@H](Cc1ccccc1)C(=O)N[C@H](C(=O)NC(C)(C)C(=O)N[C@@H](Cc1c[nH]c2ccccc12)C(=O)N[C@@H](CC(C)C)C(=O)N[C@@H](CCC(=O)O)C(=O)N[C@@H](CC(=O)O)C(=O)N[C@@H](CCC(=O)O)C(=O)N[C@@H](CCCCN)C(=O)N[C@@H](CCCNC(=N)N)C(=O)N[C@@H](CC(N)=O)C(=O)N[C@@H](CCCCN)C(=O)N[C@@H](CC(N)=O)C(=O)N1CCC[C@H]1C(=O)N1CCC[C@H]1C(=O)N[C@@H](CO)C(=O)O)C(C)C` [Compound A47] (H-YSHGTFTSDYSKYLD[Aib]KRAQEFV[Aib]WLEDEKRNKNPPS-OH; N-terminus assumed), the values for the EC50 in assay [1] and in assay [2] were 3.16 pM and > 1 nM, respectively.

Source of the values: patent US20240239861A1, “GLUCAGON-RECEPTOR SELECTIVE POLYPEPTIDES AND METHODS OF USE THEREOF” (i2O Therapeutics, Inc., priority 2016, published 2024).
